The nature of data set [1]: in vitro. The note with it: human, WM-266 cells.
Data set [2] in a line: in vitro. The note with it: human, HEK293 cells.

In brackets after ≈: the same amount, converted by molar mass. Ends that are not written are not given here.

Turning to `CCCCCCCCCCCCCC(=O)O[C@@H]1[C@@H](C)[C@@]2(O)[C@@H](C=C(CO)C[C@]3(O)C(=O)C(C)=C[C@@H]23)[C@@H]2C(C)(C)[C@]12OC(C)=O` [PMA, Phorbol 12-myristate 13-acetate, reference compound], the CC50 in the data set on WM-266 cell line turned out to be 310 µg/mL (≈ 503 µM); in the data set with BEAS-2B cell line, 297 µg/mL (≈ 481 µM); in the data set with HUVEC cell line, 272 µg/mL (≈ 441 µM); with HMEC-1 cell line, 291 µg/mL (≈ 472 µM); in the data set on HEK293 cell line it was 275 µg/mL (≈ 446 µM).

For the compound CVNDTFAGSTFISDEVD [Peptide-A], the LC100 in the data set on WM-266 cell line was 445 µg/µL; in the data set with BEAS-2B cell line it was 447; in the data set with HUVEC cell line it was 445; in the data set on HMEC-1 cell line, 452; with HEK293 cell line, 450.

As to “CVNDTFAGSTFISDEVDGVDEVAKKKSK [Peptide-AB]”, the CC50 in “in vitro [1]” was 36 µg/mL; in “in vitro [2]”, 6 µg/mL. The LC100 with WM-266 cell line came to 444 µg/µL; in the data set with BEAS-2B cell line it was 444; with HUVEC cell line, 456; with HMEC-1 cell line, 450; with HEK293 cell line it was 7.

Compound GVDEVAKKKSK [Peptide-B] gave an LC100 in the data set with WM-266 cell line of 445 µg/µL.

In the case of Phosphate-buffered saline [PBS], the LC100 came out at 587 µg/µL with WM-266 cell line; 616 in the data set on BEAS-2B cell line; 612 in the data set on HUVEC cell line; 580 in the data set on HMEC-1 cell line; 539 in the data set with HEK293 cell line.

The term CC50 denotes the concentration at which the toxic effect on the cells reaches its halfway point. Low values mean harm at low concentration, high ones better tolerance by the cells.

(Values after patent publication US11246922B1, “Vaccine RNA-peptide against SARS-CoV-2 with endogenous exosomes as carrier” (Elidan America, LLC., priority 2021, dated 2022).)
